# Patent publication US11432573B2, “Food and beverage sweeteners” (priority 2017, dated 2022)
# Experiment: Serum glucose levels in subjects after consuming coffee with sweetener blend or sucrose (Example 1)
# Type: in vivo, human
# Conditions: for serum glucose (Average): average across three subjects
# Experimental: The following Example summarizes the impact of the above-listed formulas on serum glucose levels within three different subjects. Specifically, 6.0 grams of a blend of Formula-1 through Formula-5 (above) were stirred vigorously into one shot of regular caffeinated expresso coffee that was topped to 350 milliliters of warm water. The coffee was then completely consumed by each subject within 5 minutes, following a time=0 measurement of each subject's serum glucose levels. Each subject's serum glucose levels were subsequently measured at 15 minute intervals, up to 100 minutes following the time=0 measurement. The impact of traditional sucrose on each of the subject's serum glucose levels was also measured, so that the impact of the test sweetener composition on serum glucose levels could be measured relative to such impact by traditional sucrose. The following Tables summarize the serum glucose level measurements observed with each subject (Table-1, Table-2, and Table-3), along with the average across each of the three subjects (Table-4)(the data represent mmol/L serum glucose).
compound,measurement,setting,value
"OC[C@H]1O[C@@](CO)(O[C@H]2O[C@H](CO)[C@@H](O)[C@H](O)[C@H]2O)[C@@H](O)[C@@H]1O [Sucrose, sucrose]",serum glucose,"Subject 1, T = 0 (before consumption)",5.20 mmol/L
same,serum glucose,"Subject 1, T = 15 minutes",6.20 mmol/L
same,serum glucose,"Subject 1, T = 30 minutes",7.60 mmol/L
same,serum glucose,"Subject 1, T = 45 minutes",7.60 mmol/L
same,serum glucose,"Subject 1, T = 60 minutes",7.00 mmol/L
same,serum glucose,"Subject 1, T = 75 minutes",6.20 mmol/L
same,serum glucose,"Subject 1, T = 100 minutes",6.00 mmol/L
same,serum glucose,"Subject 2, T = 0 (before consumption)",5.10 mmol/L
same,serum glucose,"Subject 2, T = 15 minutes",6.00 mmol/L
same,serum glucose,"Subject 2, T = 30 minutes",7.50 mmol/L
same,serum glucose,"Subject 2, T = 45 minutes",7.40 mmol/L
same,serum glucose,"Subject 2, T = 60 minutes",7.00 mmol/L
same,serum glucose,"Subject 2, T = 75 minutes",6.00 mmol/L
same,serum glucose,"Subject 2, T = 100 minutes",5.60 mmol/L
same,serum glucose,"Subject 3, T = 0 (before consumption)",5.20 mmol/L
same,serum glucose,"Subject 3, T = 15 minutes",5.60 mmol/L
same,serum glucose,"Subject 3, T = 30 minutes",7.70 mmol/L
same,serum glucose,"Subject 3, T = 45 minutes",7.80 mmol/L
same,serum glucose,"Subject 3, T = 60 minutes",7.40 mmol/L
same,serum glucose,"Subject 3, T = 75 minutes",6.40 mmol/L
same,serum glucose,"Subject 3, T = 100 minutes",6.20 mmol/L
same,serum glucose (Average),T = 0 (before consumption),5.17 mmol/L
same,serum glucose (Average),T = 15 minutes,5.93 mmol/L
same,serum glucose (Average),T = 30 minutes,7.60 mmol/L
same,serum glucose (Average),T = 45 minutes,7.60 mmol/L
same,serum glucose (Average),T = 60 minutes,7.13 mmol/L
same,serum glucose (Average),T = 75 minutes,6.20 mmol/L
same,serum glucose (Average),T = 100 minutes,5.93 mmol/L
